Measured values: EPA's CvTdb concentration-time database

Tests used:
[1] = tested on: Rat; assay: concentration in urine after dosing; details: dosed: dibromoacetic acid, 40 mg/kg, oral, Male, F344
[2] = tested on: Rat; assay: concentration in urine after dosing; details: dosed: dibromoacetic acid, 100 mg/kg, oral, Male, F344
[3] = tested on: Rat; assay: concentration in urine after dosing; details: dosed: dibromoacetic acid, 40 mg/kg, oral, Male, F344; remark: listed apart in the source
[4] = tested on: Rat; assay: concentration in urine after dosing; details: dosed: dibromoacetic acid, 100 mg/kg, oral, Male, F344; remark: listed apart in the source
[5] = tested on: Rat; assay: concentration in urine after dosing; details: dosed: dibromoacetic acid, oral, Male, F344
[6] = tested on: rat; assay: concentration in blood after dosing; details: dosed: m-xylene, 5000 ppm, dermal, duration: 4 hr, male, F344
[7] = tested on: rat; assay: concentration in blood after dosing; details: dosed: m-xylene, 5000 ppm, dermal, duration: 4 hr, male, F344; remark: listed apart in the source
[8] = tested on: rat; assay: concentration in blood after dosing; details: dosed: m-xylene, 5000 ppm, dermal, duration: 4 hr, male, F344; remark: listed apart in the source
[9] = tested on: rat; assay: concentration in blood after dosing; details: dosed: m-xylene, 5000 ppm, dermal, duration: 4 hr, male, F344; remark: listed apart in the source
[10] = tested on: rat; assay: concentration in blood after dosing; details: dosed: m-xylene, 5000 ppm, dermal, duration: 4 hr, male, F344; remark: listed apart in the source
[11] = tested on: rat; assay: concentration in blood after dosing; details: dosed: m-xylene, 5000 ppm, dermal, duration: 4 hr, male, F344; remark: listed apart in the source
[12] = tested on: rat; assay: concentration in blood after dosing; negative times count back from the end of exposure; details: dosed: carbon tetrachloride, inhalation, duration: 120 min

O=C(O)C(=O)O [Oxalic acid]
concentration in urine [ng/mL]
Details	0 h	2 h	4 h	8 h	24 h	48 h
[1]	63800	26200	–	–	88700	130000
[2]	53400	–	133000	–	68000	72600
[3]	63000	–	–	71100	99300	133000
[4]	63600	78100	108000	98200	103000	224000

concentration in urine [ng/mL], [5]
Details	0 h	4 h	8 h	24 h	48 h
40 mg/kg	74600	52700	63500	89100	116000
100 mg/kg	64800	105000	–	108000	154000

Cc1cccc(C)c1 [m-xylene]
concentration in blood [ng/mL]
Details	[6]	[7]	[8]	[9]	[10]	[11]
0.5 h	2860	154	154	3960	5380	6020
1 h	2950	4110	5860	3790	9470	7020
2 h	8160	4350	3840	25600	12100	3450
3 h	8020	8850	3760	5950	15900	9500
4 h	9030	10500	5030	9940	16700	11400

ClC(Cl)(Cl)Cl [carbon tetrachloride]
concentration in blood [ng/mL], [12]
Details	100 ppm	1000 ppm
0.1277 h	401	4510
0.2902 h	401	–
0.305 h	–	4270
0.4232 h	340	–
0.4675 h	–	4510
0.6891 h	240	–
0.7039 h	–	4750
0.9551 h	240	–
0.9698 h	–	3670
1.457 h	240	–
1.472 h	–	2640
1.96 h	–	2860
1.975 h	140	–
2.462 h	140	1020
2.965 h	140	1060
3.954 h	40.1	–
3.969 h	–	761
4.944 h	40.1	–
4.974 h	–	701
5.979 h	20	–
5.993 h	–	441
7.013 h	–	220
7.988 h	–	220
8.993 h	–	240
9.983 h	–	160
194 s	–	6310
247 s	501	5190

[12], during exposure
Details	concentration in blood [ng/mL]
-179 s, 1000 ppm	11200
-125 s, 100 ppm	681
-1.941 h, 1000 ppm	5690
-1.867 h, 1000 ppm	7110
-1.852 h, 100 ppm	441
-1.793 h, 100 ppm	601
-1.69 h, 100 ppm	741
-1.675 h, 1000 ppm	7550
-1.527 h, 100 ppm	481
-1.498 h, 1000 ppm	6170
-1.276 h, 1000 ppm	7510
-1.261 h, 100 ppm	421
-1.054 h, 1000 ppm	6930
-1.025 h, 100 ppm	561
-0.8032 h, 100 ppm	601
-0.7884 h, 1000 ppm	7730
-0.5668 h, 1000 ppm	8190
-0.5372 h, 100 ppm	461
-0.3008 h, 100 ppm	881
-0.2861 h, 1000 ppm	10000
